This is an account of results in patent publication US20260013501A1, “HERBICIDAL DERIVATIVES” (SYNGENTA CROP PROTECTION AG, priority 2022, published 2026).

Assay type in all cases: in vivo
Conditions in all cases: evaluated after 13 days

For assay [1], the system named is Zea mays (ZEAMX). Nature of the assay: Post-emergence Test (Table B2), ZEAMX. The arrangement: key: 5-point damage scale: 5=81-100%, 4=61-80%, 3=41-60%, 2=21-40%, 1=0-20%. How it is done:
Seeds of a variety of test species are sown in standard soil in pots (Ipomoea hederacea (IPOHE), Zea mays (ZEAMX), Echinochloa crus-galli (ECHCG), Amaranthus palmeri (AMAPA), (Amaranthus retoflexus (AMARE), and (Setaria faberi (SETFA)). After 8 days cultivation under controlled conditions in a glasshouse (at 24° C./16° C., day/night; 14 hours light; 65% humidity), the plants are sprayed with an aqueous spray solution derived from the formulation of the technical active ingredient in acetone/water (50:50) solution containing 0.5% Tween 20 (polyoxyethelyene sorbitan monolaurate, CAS RN 9005-64-5). Rate of application is shown in g/ha in the tables below. The test plants are then grown in a glasshouse under controlled conditions in a glasshouse (at 24° C./16° C., day/night; 14 hours light; 65% humidity) and watered twice daily. After 13 days the test is evaluated for the percentage damage caused to the plant. The biological activities are shown in the following table on a five-point scale (5=81-100%; 4=61-80%; 3=41-60%; 2=21-40%; 1=0-20%; -=not tested).

In assay [2] the test system is Amaranthus palmeri (AMAPA). Nature of the assay: Pre-emergence Test (Table B1), AMAPA.
The test system of assay [3] is Amaranthus retoflexus (AMARE). Description: Pre-emergence Test (Table B1), AMARE.
The test system of assay [4] is Zea mays (ZEAMX). Nature of the assay: Pre-emergence Test (Table B1), ZEAMX.

Regarding `CCn1c(Cc2cccc(Cl)c2)cc(=O)c(C(=O)O)c1-c1ccc(Cl)c(Cl)c1` [Compound 1, 6-[(3-chlorophenyl)methyl]-2-(3,4-dichlorophenyl)-1-ethyl-4-oxo-pyridine-3-carboxylic acid], the “percentage damage caused to the plant, ZEAMX” value with Zea mays (ZEAMX) [1] (rate 1000 g/Ha) is reported as 0.
Take `CCn1c(Cc2ncc(Cl)cn2)cc(=O)c(C(=O)O)c1-c1ccc(Cl)c(Cl)c1` [Compound 4, 6-[(5-chloropyrimidin-2-yl)methyl]-2-(3,4-dichlorophenyl)-1-ethyl-4-oxo-pyridine-3-carboxylic acid]: the “Pre-emergence Test, percentage damage caused to the plant (five-point scale), AMAPA” value in assay [2] (Rate 1000 g/Ha) turned out to be 0.
`CCn1c(Cc2ccc(F)cc2)cc(=O)c(C(=O)O)c1-c1ccc(Cl)c(Cl)c1` [Compound 12, 2-(3,4-dichlorophenyl)-1-ethyl-6-[(4-fluorophenyl)methyl]-4-oxo-pyridine-3-carboxylic acid]: in assay [3] (Rate 1000 g/Ha), the “Pre-emergence Test, percentage damage caused to the plant (five-point scale), AMARE” value was 0. The “percentage damage caused to the plant, ZEAMX” value in the assay on Zea mays (ZEAMX) [1] (rate 1000 g/Ha) worked out at 0.
Turning to `CCn1c(Cc2nccs2)cc(=O)c(C(=O)O)c1-c1ccc(Cl)c(Cl)c1` [Compound 19, 2-(3,4-dichlorophenyl)-1-ethyl-4-oxo-6-(thiazol-2-ylmethyl)pyridine-3-carboxylic acid], in assay [2] (Rate 1000 g/Ha), the “Pre-emergence Test, percentage damage caused to the plant (five-point scale), AMAPA” value was 0. For the same compound, the “Pre-emergence Test, percentage damage caused to the plant (five-point scale), AMARE” value in assay [3] (Rate 1000 g/Ha) is recorded as 0.
In the case of `CCn1c(Cc2cccc(OC(F)(F)F)c2)cc(=O)c(C(=O)O)c1-c1ccc(Cl)c(Cl)c1` [Compound 30, 2-(3,4-dichlorophenyl)-1-ethyl-4-oxo-6-[[3-(trifluoromethoxy)phenyl]methyl]pyridine-3-carboxylic acid], in the assay with Zea mays (ZEAMX) [1] (rate 1000 g/Ha), the “percentage damage caused to the plant, ZEAMX” value is reported as 0.
Take `CCn1c(Cc2cccc(C(F)(F)F)n2)cc(=O)c(C(=O)O)c1-c1ccc(Cl)c(Cl)c1` [Compound 39, 2-(3,4-dichlorophenyl)-1-ethyl-4-oxo-6-[[6-(trifluoromethyl)-2-pyridyl]methyl]pyridine-3-carboxylic acid]: the “Pre-emergence Test, percentage damage caused to the plant (five-point scale), AMAPA” value in assay [2] (Rate 1000 g/Ha) was determined as 0.
Regarding `CCn1c(Cc2ccnc(F)c2)cc(=O)c(C(=O)O)c1-c1ccc(Cl)c(Cl)c1` [Compound 44, 2-(3,4-dichlorophenyl)-1-ethyl-6-[(2-fluoro-4-pyridyl)methyl]-4-oxo-pyridine-3-carboxylic acid], the “Pre-emergence Test, percentage damage caused to the plant (five-point scale), ZEAMX” value in the assay with Zea mays (ZEAMX) [4] (Rate 250 g/Ha) is reported as 0.
Turning to `CCn1c(Cc2ccn(C3CC3)n2)cc(=O)c(C(=O)O)c1-c1ccc(Cl)c(Cl)c1` [Compound 54, 6-[(1-cyclopropylpyrazol-3-yl)methyl]-2-(3,4-dichlorophenyl)-1-ethyl-4-oxo-pyridine-3-carboxylic acid], the “Pre-emergence Test, percentage damage caused to the plant (five-point scale), AMAPA” value in assay [2] (Rate 1000 g/Ha) stood at 0. Also, the “Pre-emergence Test, percentage damage caused to the plant (five-point scale), AMARE” value in assay [3] (Rate 1000 g/Ha) is given as 0.
`CCn1c(Cc2cccc(C#N)n2)cc(=O)c(C(=O)O)c1-c1ccc(Cl)c(Cl)c1` [Compound 57, 6-[(6-cyano-2-pyridyl)methyl]-2-(3,4-dichlorophenyl)-1-ethyl-4-oxo-pyridine-3-carboxylic acid]: the “percentage damage caused to the plant, ZEAMX” value in the assay with Zea mays (ZEAMX) [1] (rate 1000 g/Ha) is listed as 0.
In the case of `CCn1c(Cc2ccc(OC)cc2C(F)(F)F)cc(=O)c(C(=O)O)c1-c1ccc(Cl)c(Cl)c1` [Compound 65, 2-(3,4-dichlorophenyl)-1-ethyl-6-[[4-methoxy-2-(trifluoromethyl)phenyl]methyl]-4-oxo-pyridine-3-carboxylic acid], the “Pre-emergence Test, percentage damage caused to the plant (five-point scale), ZEAMX” value in the assay with Zea mays (ZEAMX) [4] (Rate 1000 g/Ha) amounted to 0.
For `CCn1c(Cc2ccc(F)c(OC)c2)cc(=O)c(C(=O)O)c1-c1ccc(Cl)c(Cl)c1` [Compound 95, 2-(3,4-dichlorophenyl)-1-ethyl-6-[(4-fluoro-3-methoxy-phenyl)methyl]-4-oxo-pyridine-3-carboxylic acid], the “Pre-emergence Test, percentage damage caused to the plant (five-point scale), ZEAMX” value in the assay on Zea mays (ZEAMX) [4] (Rate 1000 g/Ha) came to 0. In addition, the “Pre-emergence Test, percentage damage caused to the plant (five-point scale), AMAPA” value in assay [2] (Rate 1000 g/Ha) came to 0. Further, the “Pre-emergence Test, percentage damage caused to the plant (five-point scale), AMARE” value in assay [3] (Rate 1000 g/Ha) was determined as 0.
Turning to `CCn1c(Cc2ccc(C)c(Cl)n2)cc(=O)c(C(=O)O)c1-c1ccc(Cl)c(Cl)c1` [Compound 97, 6-[(6-chloro-5-methyl-2-pyridiyl)methyl]-2-(3,4-dichlorophenyl)-1-ethyl-4-oxo-pyridine-3-carboxylic acid], the “Pre-emergence Test, percentage damage caused to the plant (five-point scale), AMAPA” value in assay [2] (Rate 1000 g/Ha) was 0. The “Pre-emergence Test, percentage damage caused to the plant (five-point scale), AMARE” value in assay [3] (Rate 1000 g/Ha) was 0.
Take `CCn1c(Cc2nc(Cl)ccc2COC)cc(=O)c(C(=O)O)c1-c1ccc(Cl)c(Cl)c1` [Compound 105, 6-[[6-chloro-3-(methoxymethyl)-2-pyridyl]methyl]-2-(3,4-dichlorophenyl)-1-ethyl-4-oxo-pyridine-3-carboxylic acid]: the “Pre-emergence Test, percentage damage caused to the plant (five-point scale), AMAPA” value in assay [2] (Rate 250 g/Ha) was found to be 0. The “Pre-emergence Test, percentage damage caused to the plant (five-point scale), AMARE” value in assay [3] (Rate 250 g/Ha) stood at 0.
With `CCn1c(Cc2ccc(C(F)F)nn2)cc(=O)c(C(=O)O)c1-c1ccc(Cl)c(Cl)c1` [Compound 108, 2-(3,4-dichlorophenyl)-6-[[6-(difluoromethyl)-pyridazin-3-yl]methyl]-1-ethyl-4-oxo-pyridine-3-carboxylic acid], the “Pre-emergence Test, percentage damage caused to the plant (five-point scale), ZEAMX” value with Zea mays (ZEAMX) [4] (Rate 1000 g/Ha) is 0. Besides, the “Pre-emergence Test, percentage damage caused to the plant (five-point scale), AMAPA” value in assay [2] (Rate 1000 g/Ha) stood at 0. In assay [3] (Rate 1000 g/Ha), the “Pre-emergence Test, percentage damage caused to the plant (five-point scale), AMARE” value turned out to be 0.
Regarding `CCn1c(Cc2cc(C(F)F)ccn2)cc(=O)c(C(=O)O)c1-c1ccc(Cl)c(Cl)c1` [Compound 115, 2-(3,4-dichlorophenyl)-6-[[4-(difluoromethyl)-2-pyridyl]methyl]-1-ethyl-4-oxo-pyridine-3-carboxylic acid], the “Pre-emergence Test, percentage damage caused to the plant (five-point scale), ZEAMX” value with Zea mays (ZEAMX) [4] (Rate 250 g/Ha) worked out at 0.
Turning to `CCn1c(Cc2cc(Cl)ccn2)cc(=O)c(C(=O)O)c1-c1ccc(Cl)c(Cl)c1` [Compound 117, 6-[(4-chloro-2-pyridyl)methyl]-2-(3,4-dichlorophenyl)-1-ethyl-4-oxo-pyridine-3-carboxylic acid], the “Pre-emergence Test, percentage damage caused to the plant (five-point scale), ZEAMX” value with Zea mays (ZEAMX) [4] (Rate 62.5 g/Ha) came out at 0. The “percentage damage caused to the plant, ZEAMX” value with Zea mays (ZEAMX) [1] (rate 62.5 g/Ha) worked out at 0.
Take `CCn1c(Cc2ccn(CC(C)C)n2)cc(=O)c(C(=O)O)c1-c1ccc(Cl)c(Cl)c1` [Compound 121, 2-(3,4-dichlorophenyl)-1-ethyl-6-[(1-isobutylpyrazol-3-yl)methyl]-4-oxo-pyridine-3-carboxylic acid]: the “Pre-emergence Test, percentage damage caused to the plant (five-point scale), ZEAMX” value in the assay with Zea mays (ZEAMX) [4] (Rate 250 g/Ha) is on record as 0.
Take `CCn1c(Cc2ccn(C(F)F)n2)cc(=O)c(C(=O)O)c1-c1ccc(Cl)c(Cl)c1` [Compound 124, 2-(3,4-dichlorophenyl)-6-[[1-(difluoromethyl)pyrazol-3-yl]methyl]-1-ethyl-4-oxo-pyridine-3-carboxylic acid]: the “Pre-emergence Test, percentage damage caused to the plant (five-point scale), ZEAMX” value in the assay with Zea mays (ZEAMX) [4] (Rate 62.5 g/Ha) is reported as 0. Moreover, the “Pre-emergence Test, percentage damage caused to the plant (five-point scale), AMAPA” value in assay [2] (Rate 62.5 g/Ha) is listed as 0. In addition, the “Pre-emergence Test, percentage damage caused to the plant (five-point scale), AMARE” value in assay [3] (Rate 62.5 g/Ha) is 0.
With `CCn1c(Cc2ccc(Cl)nc2)cc(=O)c(C(=O)O)c1-c1ccc(Cl)c(Cl)c1` [Compound 129, 6-[(6-chloro-3-pyridyl)methyl]-2-(3,4-dichlorophenyl)-1-ethyl-4-oxo-pyridine-3-carboxylic acid], the “Pre-emergence Test, percentage damage caused to the plant (five-point scale), AMAPA” value in assay [2] (Rate 250 g/Ha) came to 0. In addition, the “percentage damage caused to the plant, ZEAMX” value with Zea mays (ZEAMX) [1] (rate 250 g/Ha) is 0.
As to `CCn1c(Cc2ccc(OC)nn2)cc(=O)c(C(=O)O)c1-c1ccc(Cl)c(Cl)c1` [Compound 133, 2-(3,4-dichlorophenyl)-1-ethyl-6-[(6-methoxypyridazin-3-yl)methyl]-4-oxo-pyridine-3-carboxylic acid], in the assay on Zea mays (ZEAMX) [4] (Rate 250 g/Ha), the “Pre-emergence Test, percentage damage caused to the plant (five-point scale), ZEAMX” value worked out at 0.
The same measure, in the same setting: next, `CCn1c(Cc2cccc(Br)n2)cc(=O)c(C(=O)O)c1-c1ccc(Cl)c(Cl)c1` [Compound 138, 6-[(6-bromo-2-pyridyl)methyl]-2-(3,4-dichlorophenyl)-1-ethyl-4-oxo-pyridine-3-carboylic acid]: 0.
On to `CCn1c(Cc2ccnc(C(F)(F)F)n2)cc(=O)c(C(=O)O)c1-c1ccc(Cl)c(Cl)c1` [Compound 141, 2-(3,4-dichlorophenyl)-1-ethyl-4-oxo-6-[[2-(trifluoromethyl)pyrimidin-4-yl]methyl]pyridine-3-carboxylic acid], for which the “Pre-emergence Test, percentage damage caused to the plant (five-point scale), ZEAMX” value with Zea mays (ZEAMX) [4] (Rate 250 g/Ha) is 0. Besides, the “Pre-emergence Test, percentage damage caused to the plant (five-point scale), AMAPA” value in assay [2] (Rate 250 g/Ha) stood at 0.
As to `CCn1c(Cc2cccc(C(C)F)n2)cc(=O)c(C(=O)O)c1-c1ccc(Cl)c(Cl)c1` (stereo not drawn) [Compound 147, 2-(3,4-dichlorophenyl)-1-ethyl-6-[[6-(1-fluoroethyl)-2-pyridyl]methyl]-4-oxo-pyridine-3-carboxylic acid], the “Pre-emergence Test, percentage damage caused to the plant (five-point scale), AMAPA” value in assay [2] (Rate 250 g/Ha) was found to be 0.
In the case of `CCn1c(Cc2ccon2)cc(=O)c(C(=O)O)c1-c1ccc(Cl)c(Cl)c1` [Compound 149, 2-(3,4-dichlorophenyl)-1-ethyl-6-(isoxazol-3-ylmethyl)-4-oxo-pyridine-3-carboxylic acid], the “Pre-emergence Test, percentage damage caused to the plant (five-point scale), ZEAMX” value in the assay with Zea mays (ZEAMX) [4] (Rate 250 g/Ha) is 0. In addition, in the assay with Zea mays (ZEAMX) [1] (rate 250 g/Ha), the “percentage damage caused to the plant, ZEAMX” value amounted to 0.
